The test system of data set [1] is circulating non-esterified fatty acids (NEFA). In words: Circulating non-esterified fatty acids in lambs fed a polyol supplement. Format: in vivo. Particulars: lambs fed restricted diet (75% of maintenance energy requirements), supplement 25 to 45 grams/lamb, blood 1-24 hours after dose.
Protocol: In this Example, the effect of a diet comprising an isolated or purified polyol on the level of circulating non-esterified fatty acids (“NEFA”) in lambs was examined.
Four lambs were used in this Example. The lambs were fed a basal diet the first week followed by at least 4 weeks during which the supplement treatments were evaluated. The lambs were fed a diet supplement comprising sorbitan during the second and third weeks of the treatment. The lambs were fed a diet supplement comprising polyglycerol during the fourth and fifth weeks of the treatment. The diet supplements were fed separate from the basal diet feed.
Another data set relates to rumen fluid. In words: In vitro fermentation of polyols in an artificial rumen environment using rumen fluid as inoculum. Particulars: for fermentation rate: in vitro rumen fermentation, gas production monitored every 30 minutes; for fermentation rate / extent of fermentation: in words; for extent of fermentation: by 24 hours, judged from final gas volume and VFA. The procedure:
Fermentations were performed on two separate days where gas production was monitored every 30 minutes. In addition, pH, ammonia (NH3), and volatile fatty acid (“VFA”) production were measured after 24 hours. Duplicate samples of each compound were evaluated using in vitro rumen fermentations.
Duplicate samples of these compounds were fermented in vitro using rumen fluid as inoculum. Samples were weighed into 150 mL serum bottles (0.3 grams per bottle) using a CO2 atmosphere to provide an anaerobic environment. A standard buffered media was prepared (no additional feed matter was included in the fermentation), degassed, and added to the serum bottles (see, Goering, H. K., and P. J. Van Soest, “Forage Fiber Analyses (Apparatus, Reagents, Procedures, and Some Applications),” Agric. Handbook, No 379, ARS-USDA, Washington, D.C., 1970). Rumen fluid was obtained from a dairy cow, filtered, and added to the serum bottles as 20% of the total fluid addition (30 mL total fluid volume). The serum bottles were sealed, placed in an incubator, and the fermentation was allowed to proceed. Fermentations were performed on two separate days, during which time gas production was monitored every 30 minutes and pH, NH3, and VFA production measured after 24 hours.

We go through three compounds from US8933133B2, “Animal feeds containing polyols” (ADM Alliance Nutrition, Inc., priority 2006, dated 2015).

Each structure is given as a SMILES string.

As for `OC[C@@H](O)[C@H]1OC[C@H](O)[C@H]1O` [Sorbitan, 1,4-anhydro-D-sorbitol], the “change in circulating NEFA levels” value in data set [1] is on record as “decrease in circulating NEFA levels”. Further, the rumen escape result in the data set with rumen fluid (estimated from rate of in vitro fermentation / gas production, by weight escaping fermentation in the rumen) is “greater than 80%”. Moreover, the fermentation rate result with rumen fluid is on record as “slower than glucose, sorbitol, or glycerol”.

With `OC[C@@H](O)[C@@H](O)[C@H](O)[C@@H](O)CO` [Sorbitol, sorbitol], in the data set on rumen fluid, the extent of fermentation entry is “largely fermented by 24 hours” and the fermentation rate result was “slower than glucose”.

As for `OCC(O)CO` [Glycerol, glycerol], the extent of fermentation result in the data set on rumen fluid was “largely fermented by 24 hours”.
